Assay results published in PubChem BioAssay (NCI).
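GI50 is the concentration that inhibits growth by half. TGI marks complete inhibition of growth.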

Key:
Experiment in all cases: growth of human tumour cells (NCI), 384-well format
SK-MEL-28 melanoma = test system: SK-MEL-28 melanoma
OVCAR-4 ovarian = test system: OVCAR-4 ovarian
SF-268 CNS = test system: SF-268 CNS
KM12 colon = test system: KM12 colon
A549 NSCLC = test system: A549 NSCLC
SR leukemia = test system: SR leukemia
T-47D breast = test system: T-47D breast
SW-620 colon = test system: SW-620 colon
NCI-H522 lung = test system: NCI-H522 lung
NCI/ADR-RES ovarian = test system: NCI/ADR-RES ovarian
COLO 205 colon = test system: COLO 205 colon
HCT-15 colon = test system: HCT-15 colon
ACHN renal = test system: ACHN renal

## Nc1ncn(C2OC(CO)C(O)C2O)c(=O)n1 (stereo unspecified)
SK-MEL-28 melanoma
  GI50: 3.33 µM
  TGI: 18 µM
OVCAR-4 ovarian
  GI50: 3.33 µM
  TGI: 23.8 µM
SF-268 CNS
  GI50: 4.36 µM
  TGI: > 31.9 µM
KM12 colon
  GI50: 2.54 µM
  TGI: 11.8 µM
A549 NSCLC
  GI50: 3.24 µM
  TGI: > 38 µM
SR leukemia
  GI50: 0.165 µM
  TGI: 0.423 µM
T-47D breast
  GI50: 4.67 µM
  TGI: > 37.6 µM
SW-620 colon
  GI50: 2.25 µM
  TGI: > 34.7 µM
NCI-H522 lung
  GI50: 1.58 µM
  TGI: 6.41 µM
NCI/ADR-RES ovarian
  GI50: 4.25 µM
  TGI: > 35.6 µM
COLO 205 colon
  GI50: 1.41 µM
  TGI: 10.9 µM
HCT-15 colon
  GI50: 2.11 µM
  TGI: 8.05 µM
ACHN renal
  GI50: 1.3 µM
  TGI: 17 µM
